Data reported in patent US20080138393A1, “Water soluble extract of spinach for prevention and repair of DNA damage” (Access to Business Group International LLC, priority 2006, published 2008).

Experiments:
[1] = Oxygen radical absorbency capacity (ORAC)
THP-1 monocytes = assay: Protection from oxidative stress, MitoSOX Red mitochondrial superoxide indicator, flow cytometry; type: cell-based; conditions: 3 hours treatment, then H2O2 challenge 3 hours, sample 100 ug/ml final, positive control 100 uM, 0% = challenged negative control, 100% = unchallenged normal control
From the text: The assay described in this experiment measures oxidative stress occurring within the mitochondria. As discussed above, the biochemical reactions used by mitochondria to generate energy yielding ATP molecules also produce highly oxidizing superoxide free radical as a by-product. Using flow cytometry, the below example measures the protection various test samples provide from oxidative stress by monitoring the status of superoxide within mitochondria following treatment with the test materials.
MitoSOX Red mitochondrial superoxide indicator (Invitrogen cat#M36008) is a fluorescent dye that is selectively taken up by mitochondria. Once in the mitochondria, MitoSOX reacts with superoxide free radical to form a fluorescent product (excitation/emission maxima=510/580 nm) that binds to mitochondrial nucleic acids. A higher fluorescence reading corresponds to a higher level of superoxide free radical being present within the mitochondria.
Cell Culture: One 6 well plate is used per sample. Multiple plates may be prepared simultaneously. Refer to Table I for a plate description. THP-1 monocytes (ATCC cat# TIB-202) are plated at 1.5×10^6 cells/well in 6 well plates (contained in 2 ml/well RMPI 1640 media supplemented with 10% FBS) and incubated for 1 hour before treating.
Treatment: Glutathione monoethylester (GMEE, 100 uM final concentration) is used as a positive control. […]

Row | Compound | oxygen radical absorbency capacity (ORAC) [1] | protection from oxidative stress (THP-1 monocytes) [%]
1 | COC(=O)c1cc(O)ccc1O [Methylgentisate, methylgentisate] | 25,605 μmol Teq/g | 
2 | CCOC(=O)CNC(=O)[C@H](CS)NC(=O)CC[C@H](N)C(=O)O [glutathione methyl ester] |  | 35
